Article PMC6364417, “Kinase inhibitor library screening identifies synergistic drug combinations effective in sensitive and resistant melanoma cells” (Journal of Experimental & Clinical Cancer Research : CR, 2019)

How the values were obtained:
Test in all cases: Kinase inhibitor library screening, PrestoBlue cell viability, 1 or 10 μM, 72 h
IGR37 cells (parental) = system: IGR37 cells (parental)
[1] = system: 501Mel-XP cells (Vemurafenib-resistant); conditions: 72 h
[2] = system: A375-XP cells (Vemurafenib-resistant)
[3] = system: IGR37-GP cells (Dabrafenib-resistant)
[4] = system: IGR37-XP cells (Vemurafenib-resistant)
[5] = system: 501Mel-GP cells (Dabrafenib-resistant); conditions: 72 h
[6] = system: A375-GP cells (Dabrafenib-resistant)
501Mel cells (parental) = conditions: 72 h
In short: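 Single-point screen at two doses over three days. Parental and BRAF-inhibitor-resistant sublines (XP: Vemurafenib; GP: Dabrafenib) were assessed by PrestoBlue viability, reported relative to untreated cells.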

A375 cells (parental) = system: A375 cells (parental)

Row | SMILES | cell viability (kinase inhibitor library screening) (IGR37 cells (parental); IGR37 Parental, 1μΜ, 72 h) [%] | cell viability (kinase inhibitor library screening) (IGR37 cells (parental); IGR37 Parental, 10μΜ, 72 h) [%] | cell viability (kinase inhibitor library screening) ([1]; 501Mel XP, 1μΜ) [%] | cell viability (kinase inhibitor library screening) ([1]; 501Mel XP, 10μΜ) [%] | cell viability (kinase inhibitor library screening) ([2]; A375 XP, 1μΜ, 72 h) [%] | cell viability (kinase inhibitor library screening) ([2]; A375 XP, 10μΜ, 72 h) [%] | cell viability (kinase inhibitor library screening) ([3]; IGR37 GP, 1μΜ, 72 h) [%] | cell viability (kinase inhibitor library screening) ([3]; IGR37 GP, 10μΜ, 72 h) [%] | cell viability (kinase inhibitor library screening) ([4]; IGR37 XP, 1μΜ, 72 h) [%] | cell viability (kinase inhibitor library screening) ([4]; IGR37 XP, 10μΜ, 72 h) [%] | cell viability (kinase inhibitor library screening) ([5]; 501Mel GP, 1μΜ) [%] | cell viability (kinase inhibitor library screening) ([5]; 501Mel GP, 10μΜ) [%] | cell viability (kinase inhibitor library screening) ([6]; A375 GP, 1μΜ, 72 h) [%] | cell viability (kinase inhibitor library screening) ([6]; A375 GP, 10μΜ, 72 h) [%] | cell viability (kinase inhibitor library screening) (501Mel cells (parental); 501Mel Parental, 1μΜ) [%] | cell viability (kinase inhibitor library screening) (501Mel cells (parental); 501Mel Parental, 10μΜ) [%] | cell viability (kinase inhibitor library screening) (A375 cells (parental); A375 Parental, 10μΜ, 72 h) [%] | cell viability (kinase inhibitor library screening) (A375 cells (parental); A375 Parental, 1μΜ, 72 h) [%] | also measured
1 | Nc1ncnc2c1c(-c1cccc(OCc3ccccc3)c1)cn2C1CC(CN2CCCC2)C1 (stereo not drawn) [NVP-ADW742] | – | – | – | – | – | – | – | – | – | – | – | – | – | – | – | – | – | – | cell viability, IGR37 Parental, 1μΜ (IGR37 cells (parental); IGR37 Parental, 1μΜ, 72 h, in %): 110.2; cell viability, IGR37 Parental, 10μΜ (IGR37 cells (parental); IGR37 Parental, 10μΜ, 72 h, in %): 0.537; cell viability, 501Mel XP, 1μΜ ([1]; 501Mel XP, 1μΜ, in %): 82.0; cell viability, 501Mel XP, 10μΜ ([1]; 501Mel XP, 10μΜ, in %): -0.346; cell viability, A375 XP, 1μΜ ([2]; A375 XP, 1μΜ, 72 h, in %): 90.5; cell viability, A375 XP, 10μΜ ([2]; A375 XP, 10μΜ, 72 h, in %): 13.9; cell viability, IGR37 GP, 10μΜ ([3]; IGR37 GP, 10μΜ, 72 h): 1.6%; cell viability, IGR37 GP, 1μΜ ([3]; IGR37 GP, 1μΜ, 72 h, in %): 83.7; cell viability, IGR37 XP, 10μΜ ([4]; IGR37 XP, 10μΜ, 72 h): 1.2%; cell viability, IGR37 XP, 1μΜ ([4]; IGR37 XP, 1μΜ, 72 h, in %): 78.5; cell viability, 501Mel GP, 1μΜ ([5]; 501Mel GP, 1μΜ, in %): 91.7; cell viability, 501Mel GP, 10μΜ ([5]; 501Mel GP, 10μΜ, in %): -0.2; cell viability, A375 GP, 1μΜ ([6]; A375 GP, 1μΜ, 72 h, in %): 57.9; cell viability, A375 GP, 10μΜ ([6]; A375 GP, 10μΜ, 72 h, in %): 20.2; cell viability, 501Mel Parental, 1μΜ (501Mel cells (parental); 501Mel Parental, 1μΜ, in %): 80.8; cell viability, 501Mel Parental, 10μΜ (501Mel cells (parental); 501Mel Parental, 10μΜ, in %): 0.529; cell viability, A375 Parental, 1μΜ (A375 cells (parental); A375 Parental, 1μΜ, 72 h, in %): 89.6; cell viability, A375 Parental, 10μΜ (A375 cells (parental); A375 Parental, 10μΜ, 72 h, in %): 25.2
2 | Cc1nc(N)sc1-c1ccnc(Nc2ccc(N3CCOCC3)cc2)n1 [CYC116] | 94.2 | 59.4 | 94.4 | 30.0 | 75.4 | 46.7 | 92.1 | 50.1 | 98.8 | 26.5 | 104.5 | 44.7 | 52.0 | 33.0 | 99.4 | 67.9 | 33.9 | 54.1 | –
3 | Oc1c2ccccc2c2c3c(cccc13)N=N2 [SP600125] | – | – | – | – | – | – | – | – | – | – | – | – | – | – | – | – | – | – | viability at 1 µM (IGR37 cells (parental); Homo sapiens, IGR-37, 72 h, read-out: cell viability, IGR37 Parental, 1μΜ): 98.4%; viability at 10 µM (IGR37 cells (parental); Homo sapiens, IGR-37, 72 h, read-out: cell viability, IGR37 Parental, 10μΜ): 70.6%; viability at 1 µM ([1]; Homo sapiens, read-out: cell viability, 501Mel XP, 1μΜ): 94.3%; viability at 10 µM ([1]; Homo sapiens, read-out: cell viability, 501Mel XP, 10μΜ): 54.5%; viability at 1 µM ([2]; Homo sapiens, A-375, 72 h, read-out: cell viability, A375 XP, 1μΜ): 103%; viability at 10 µM ([2]; Homo sapiens, A-375, 72 h, read-out: cell viability, A375 XP, 10μΜ): 91.5%; viability at 1 µM ([3]; Homo sapiens, IGR-37, 72 h, read-out: cell viability, IGR37 GP, 1μΜ): 92.5%; viability at 10 µM ([3]; Homo sapiens, IGR-37, 72 h, read-out: cell viability, IGR37 GP, 10μΜ): 74.4%; viability at 1 µM ([4]; Homo sapiens, IGR-37, 72 h, read-out: cell viability, IGR37 XP, 1μΜ): 96.5%; viability at 10 µM ([4]; Homo sapiens, IGR-37, 72 h, read-out: cell viability, IGR37 XP, 10μΜ): 45.8%; viability at 1 µM ([5]; Homo sapiens, read-out: cell viability, 501Mel GP, 1μΜ): 95.4%; viability at 10 µM ([5]; Homo sapiens, read-out: cell viability, 501Mel GP, 10μΜ): 66.8%; viability at 1 µM ([6]; Homo sapiens, A-375, 72 h, read-out: cell viability, A375 GP, 1μΜ): 98.3%; viability at 10 µM ([6]; Homo sapiens, A-375, 72 h, read-out: cell viability, A375 GP, 10μΜ): 83.9%; viability at 1 µM (501Mel cells (parental); Homo sapiens, read-out: cell viability, 501Mel Parental, 1μΜ): 107%; viability at 10 µM (501Mel cells (parental); Homo sapiens, read-out: cell viability, 501Mel Parental, 10μΜ): 75.1%; viability at 1 µM (A375 cells (parental); Homo sapiens, A-375, 72 h, read-out: cell viability, A375 Parental, 1μΜ): 102%; viability at 10 µM (A375 cells (parental); Homo sapiens, A-375, 72 h, read-out: cell viability, A375 Parental, 10μΜ): 79.2%
4 | COc1cc(Nc2ncc3c(n2)-c2ccc(Cl)cc2C(c2c(F)cccc2OC)=NC3)ccc1C(=O)O [MLN8237 (Alisertib)] | 70.3 | 54.5 | 67.2 | 49.0 | 51.0 | 50.5 | 89.7 | 56.0 | 86.2 | 31.0 | 82.8 | 52.7 | 42.7 | 41.7 | 82.2 | 73.9 | 40.1 | 43.3 | –
